Measurements: US10314777B2, “Delivery of hydrophobic bioactive agents” (priority 2010, dated 2019)

Test: Solubility of the retinoate in the carrier GRANSIL GTS
Format: physicochemical
Source text: In some embodiments, a bioactive agent is a vitamin A derivative such as a retinoid. As an example, some embodiments include hydroxyanasatil retinoate, a form of all-trans retinoate sold by Concert, LLC, Memphis, Tenn., optionally in an amount of 0.1 percent by weight. This material is insoluble at this concentration in the carrier sold under the tradename GRANSIL GTS, which is a mixture of ethyl trisiloxane and polysilicone-11. […] Upon exposure to the environment for application to the skin, the carrier volatilizes allowing the crystalline retinoate to resolubilize in the solvent for increased penetration of the skin.

Structure (SMILES): COc1ccc(C(=O)COC(=O)\C=C(C)/C=C/C=C(C)/C=C/C2=C(C)CCCC2(C)C)cc1 [hydroxyanasatil retinoate]
- solubility in carrier GRANSIL GTS (0.1 percent by weight in ethyl trisiloxane and polysilicone-11): insoluble
- state in carrier GRANSIL GTS with non-volatile solvent (0.1 percent by weight, dimethyl isosorbide added at 0.8%): mixed state of solubilized material and crystalline material
